Laboratory results: the kinase profiling compilation of Christmann-Franck et al. (2016)

Key:
Assay in all cases: radiometric filter-binding kinase assay, Kinase HotSpot
Settings in all cases: compound 0.5 µM; ATP 10 µM
MAP3K2 (human) = MAP3K2 (human) (UniProt Q9Y2U5)
MAP4K2 (human) = MAP4K2 (human) (UniProt Q12851)
EPHA8 (human) = EPHA8 (human) (UniProt P29322)
EPHA1 (human) = EPHA1 (human) (UniProt P21709)
PRKCG (human) = PRKCG (human) (UniProt P05129)
PRKG2 (human) = PRKG2 (human) (UniProt Q13237)
CDK2 CCNA2 (human) = CDK2 CCNA2 (human) (UniProt P24941+P20248)
FLT3 (human) = FLT3 (human) (UniProt P36888)
PRKCD (human) = PRKCD (human) (UniProt Q05655)
PRKCD (human), sequence (Q05655 whole entry, looked up): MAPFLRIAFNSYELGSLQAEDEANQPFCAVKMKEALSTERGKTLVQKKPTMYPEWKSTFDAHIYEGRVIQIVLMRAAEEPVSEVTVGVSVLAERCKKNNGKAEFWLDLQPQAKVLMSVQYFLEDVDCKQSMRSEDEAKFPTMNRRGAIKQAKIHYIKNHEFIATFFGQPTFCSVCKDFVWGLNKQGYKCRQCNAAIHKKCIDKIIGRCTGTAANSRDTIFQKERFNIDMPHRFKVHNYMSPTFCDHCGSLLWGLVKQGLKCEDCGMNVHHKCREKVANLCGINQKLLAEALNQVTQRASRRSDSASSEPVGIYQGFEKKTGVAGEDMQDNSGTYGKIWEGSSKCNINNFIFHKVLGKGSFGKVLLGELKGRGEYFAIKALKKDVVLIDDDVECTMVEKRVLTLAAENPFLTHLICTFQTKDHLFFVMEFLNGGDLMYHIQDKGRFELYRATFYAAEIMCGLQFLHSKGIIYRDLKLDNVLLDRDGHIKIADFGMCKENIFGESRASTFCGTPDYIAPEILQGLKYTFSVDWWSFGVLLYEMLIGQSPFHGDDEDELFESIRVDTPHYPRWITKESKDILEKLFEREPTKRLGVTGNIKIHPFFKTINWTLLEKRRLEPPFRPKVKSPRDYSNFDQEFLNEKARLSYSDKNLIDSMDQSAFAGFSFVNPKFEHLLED

MAP3K5 (human) = MAP3K5 (human) (UniProt Q99683)
SRC (human) = SRC (human) (UniProt P12931)
PAK4 (human) = PAK4 (human) (UniProt O96013)
PAK4 (human), sequence (O96013 whole entry, looked up): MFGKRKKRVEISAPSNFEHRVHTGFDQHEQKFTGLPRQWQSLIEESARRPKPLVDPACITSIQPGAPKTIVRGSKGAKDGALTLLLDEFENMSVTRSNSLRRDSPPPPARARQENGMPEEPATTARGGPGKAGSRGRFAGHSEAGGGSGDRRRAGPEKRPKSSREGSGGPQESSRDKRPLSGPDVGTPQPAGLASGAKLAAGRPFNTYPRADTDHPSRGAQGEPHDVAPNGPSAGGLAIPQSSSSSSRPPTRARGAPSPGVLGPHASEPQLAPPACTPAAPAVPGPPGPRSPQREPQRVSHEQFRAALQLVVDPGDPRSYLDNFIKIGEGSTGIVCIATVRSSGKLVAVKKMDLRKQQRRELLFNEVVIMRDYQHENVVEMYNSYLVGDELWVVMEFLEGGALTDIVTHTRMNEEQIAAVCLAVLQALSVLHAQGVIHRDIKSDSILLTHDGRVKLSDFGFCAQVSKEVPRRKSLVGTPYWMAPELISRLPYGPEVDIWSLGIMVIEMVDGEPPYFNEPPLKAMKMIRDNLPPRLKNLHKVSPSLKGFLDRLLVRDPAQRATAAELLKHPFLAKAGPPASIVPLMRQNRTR

FGFR3 (human) = FGFR3 (human) (UniProt P22607)
FES (human) = FES (human) (UniProt P07332)
MAPK14 (human) = MAPK14 (human) (UniProt Q16539)
NTRK2 (human) = NTRK2 (human) (UniProt Q16620)
NTRK2 (human), sequence (Q16620 whole entry, looked up): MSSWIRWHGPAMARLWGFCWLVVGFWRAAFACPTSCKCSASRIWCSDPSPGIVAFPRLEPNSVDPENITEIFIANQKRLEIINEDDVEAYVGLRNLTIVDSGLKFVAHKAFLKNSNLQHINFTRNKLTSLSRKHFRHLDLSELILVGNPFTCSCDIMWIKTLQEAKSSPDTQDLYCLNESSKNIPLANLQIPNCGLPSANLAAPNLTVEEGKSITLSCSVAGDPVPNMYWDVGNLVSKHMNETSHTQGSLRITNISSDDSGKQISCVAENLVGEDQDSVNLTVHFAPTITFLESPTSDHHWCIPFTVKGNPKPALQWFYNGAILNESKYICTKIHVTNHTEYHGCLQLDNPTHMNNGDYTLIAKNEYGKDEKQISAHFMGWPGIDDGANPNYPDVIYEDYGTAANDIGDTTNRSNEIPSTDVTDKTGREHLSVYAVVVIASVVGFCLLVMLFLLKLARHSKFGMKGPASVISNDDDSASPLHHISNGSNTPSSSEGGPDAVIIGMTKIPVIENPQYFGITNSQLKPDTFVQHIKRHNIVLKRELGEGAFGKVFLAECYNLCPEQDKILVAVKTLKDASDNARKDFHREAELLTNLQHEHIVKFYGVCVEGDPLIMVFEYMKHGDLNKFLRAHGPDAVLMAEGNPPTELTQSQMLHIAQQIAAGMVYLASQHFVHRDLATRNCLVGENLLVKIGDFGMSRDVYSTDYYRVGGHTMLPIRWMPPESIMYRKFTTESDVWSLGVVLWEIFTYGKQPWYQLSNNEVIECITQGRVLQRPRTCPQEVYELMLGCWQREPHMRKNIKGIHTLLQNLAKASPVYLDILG

PRKX (human) = PRKX (human) (UniProt P51817)
PRKCH (human) = PRKCH (human) (UniProt P24723)
CLK3 (human) = CLK3 (human) (UniProt P49761)
CDK6 CCND1 (human) = CDK6 CCND1 (human) (UniProt Q00534+P24385)
CDK4 CCND3 (human) = CDK4 CCND3 (human) (UniProt P30281+P11802)
CDK4 CCND3 (human), sequence (P11802 whole entry, looked up): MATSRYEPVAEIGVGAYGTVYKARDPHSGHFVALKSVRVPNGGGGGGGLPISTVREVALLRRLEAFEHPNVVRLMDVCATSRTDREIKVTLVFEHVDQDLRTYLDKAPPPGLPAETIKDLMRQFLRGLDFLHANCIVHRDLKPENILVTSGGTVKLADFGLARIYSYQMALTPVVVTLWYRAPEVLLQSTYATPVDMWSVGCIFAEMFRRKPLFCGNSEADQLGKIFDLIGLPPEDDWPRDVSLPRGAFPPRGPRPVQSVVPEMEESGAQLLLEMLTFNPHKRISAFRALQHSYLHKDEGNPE
CDK4 CCND3 (human), sequence (P30281 whole entry, looked up): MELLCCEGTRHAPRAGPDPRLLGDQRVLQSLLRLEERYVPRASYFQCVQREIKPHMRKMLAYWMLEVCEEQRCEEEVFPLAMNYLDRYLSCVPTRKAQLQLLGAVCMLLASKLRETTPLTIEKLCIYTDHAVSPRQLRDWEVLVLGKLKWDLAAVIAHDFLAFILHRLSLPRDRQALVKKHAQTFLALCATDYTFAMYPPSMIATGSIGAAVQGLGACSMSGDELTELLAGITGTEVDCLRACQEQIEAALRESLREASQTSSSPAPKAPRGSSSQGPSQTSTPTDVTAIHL

BTK (human) = BTK (human) (UniProt Q06187)
MAP3K7 TAB1 (human) = MAP3K7 TAB1 (human) (UniProt O43318+Q15750)
SYK (human) = SYK (human) (UniProt P43405)
FGFR2 (human) = FGFR2 (human) (UniProt P21802)
FGFR4 (human) = FGFR4 (human) (UniProt P22455)
MAPK13 (human) = MAPK13 (human) (UniProt O15264)
MAPK13 (human), sequence (O15264 whole entry, looked up): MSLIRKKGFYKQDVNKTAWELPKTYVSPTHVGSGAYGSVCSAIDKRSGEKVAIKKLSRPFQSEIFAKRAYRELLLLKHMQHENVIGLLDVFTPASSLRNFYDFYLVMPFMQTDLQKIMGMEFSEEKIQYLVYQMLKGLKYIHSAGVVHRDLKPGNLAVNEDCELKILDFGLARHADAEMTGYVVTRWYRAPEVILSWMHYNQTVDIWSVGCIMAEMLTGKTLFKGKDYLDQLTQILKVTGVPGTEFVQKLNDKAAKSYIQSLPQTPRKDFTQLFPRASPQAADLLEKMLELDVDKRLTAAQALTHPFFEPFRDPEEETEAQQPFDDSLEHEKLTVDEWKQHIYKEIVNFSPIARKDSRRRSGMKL

ALK (human) = ALK (human) (UniProt Q9UM73)
ULK1 (human) = ULK1 (human) (UniProt O75385)
PIM3 (human) = PIM3 (human) (UniProt Q86V86)
MAP3K8 (human) = MAP3K8 (human) (UniProt P41279)
TBK1 (human) = TBK1 (human) (UniProt Q9UHD2)
CAMKK1 (human) = CAMKK1 (human) (UniProt Q8N5S9)
PLK1 (human) = PLK1 (human) (UniProt P53350)
RIPK2 (human) = RIPK2 (human) (UniProt O43353)
RPS6KB2 (human) = RPS6KB2 (human) (UniProt Q9UBS0)
CSNK1E (human) = CSNK1E (human) (UniProt P49674)
CDK6 CCND3 (human) = CDK6 CCND3 (human) (UniProt P30281+Q00534)
CDK6 CCND3 (human), sequence (P30281 whole entry, looked up): as the sequence (P30281 whole entry, looked up) above
CDK6 CCND3 (human), sequence (Q00534 whole entry, looked up): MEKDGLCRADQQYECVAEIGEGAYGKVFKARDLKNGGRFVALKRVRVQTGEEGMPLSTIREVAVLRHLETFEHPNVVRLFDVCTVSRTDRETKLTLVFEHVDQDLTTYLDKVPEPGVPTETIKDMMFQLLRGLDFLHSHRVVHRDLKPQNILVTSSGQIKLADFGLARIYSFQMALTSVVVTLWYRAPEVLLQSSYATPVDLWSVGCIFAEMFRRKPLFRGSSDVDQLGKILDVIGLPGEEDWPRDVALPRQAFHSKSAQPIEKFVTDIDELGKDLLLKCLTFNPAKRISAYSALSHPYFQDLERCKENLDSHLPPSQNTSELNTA

FGFR1 (human) = FGFR1 (human) (UniProt P11362)
RET (human) = RET (human) (UniProt P07949)
MAP3K3 (human) = MAP3K3 (human) (UniProt Q99759)
MAP3K3 (human), sequence (Q99759 whole entry, looked up): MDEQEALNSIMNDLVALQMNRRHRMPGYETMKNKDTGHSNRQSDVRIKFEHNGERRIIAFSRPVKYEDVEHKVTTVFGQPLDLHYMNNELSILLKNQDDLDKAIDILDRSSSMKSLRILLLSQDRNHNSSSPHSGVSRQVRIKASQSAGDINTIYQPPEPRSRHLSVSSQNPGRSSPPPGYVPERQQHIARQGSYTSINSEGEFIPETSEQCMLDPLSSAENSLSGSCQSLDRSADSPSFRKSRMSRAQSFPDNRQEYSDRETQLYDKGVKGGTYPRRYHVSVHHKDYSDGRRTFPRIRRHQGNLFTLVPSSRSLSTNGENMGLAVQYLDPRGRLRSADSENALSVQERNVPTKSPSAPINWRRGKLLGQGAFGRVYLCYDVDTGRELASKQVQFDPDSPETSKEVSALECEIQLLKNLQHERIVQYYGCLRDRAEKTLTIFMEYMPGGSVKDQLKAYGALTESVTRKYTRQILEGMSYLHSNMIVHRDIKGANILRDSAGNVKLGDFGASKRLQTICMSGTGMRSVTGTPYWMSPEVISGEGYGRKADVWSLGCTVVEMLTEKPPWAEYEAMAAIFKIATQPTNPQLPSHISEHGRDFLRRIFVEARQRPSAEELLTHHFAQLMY

MLTK (human) = MLTK (human) (UniProt Q9NYL2)

EPHA1 (human), sequence (P21709 whole entry, looked up): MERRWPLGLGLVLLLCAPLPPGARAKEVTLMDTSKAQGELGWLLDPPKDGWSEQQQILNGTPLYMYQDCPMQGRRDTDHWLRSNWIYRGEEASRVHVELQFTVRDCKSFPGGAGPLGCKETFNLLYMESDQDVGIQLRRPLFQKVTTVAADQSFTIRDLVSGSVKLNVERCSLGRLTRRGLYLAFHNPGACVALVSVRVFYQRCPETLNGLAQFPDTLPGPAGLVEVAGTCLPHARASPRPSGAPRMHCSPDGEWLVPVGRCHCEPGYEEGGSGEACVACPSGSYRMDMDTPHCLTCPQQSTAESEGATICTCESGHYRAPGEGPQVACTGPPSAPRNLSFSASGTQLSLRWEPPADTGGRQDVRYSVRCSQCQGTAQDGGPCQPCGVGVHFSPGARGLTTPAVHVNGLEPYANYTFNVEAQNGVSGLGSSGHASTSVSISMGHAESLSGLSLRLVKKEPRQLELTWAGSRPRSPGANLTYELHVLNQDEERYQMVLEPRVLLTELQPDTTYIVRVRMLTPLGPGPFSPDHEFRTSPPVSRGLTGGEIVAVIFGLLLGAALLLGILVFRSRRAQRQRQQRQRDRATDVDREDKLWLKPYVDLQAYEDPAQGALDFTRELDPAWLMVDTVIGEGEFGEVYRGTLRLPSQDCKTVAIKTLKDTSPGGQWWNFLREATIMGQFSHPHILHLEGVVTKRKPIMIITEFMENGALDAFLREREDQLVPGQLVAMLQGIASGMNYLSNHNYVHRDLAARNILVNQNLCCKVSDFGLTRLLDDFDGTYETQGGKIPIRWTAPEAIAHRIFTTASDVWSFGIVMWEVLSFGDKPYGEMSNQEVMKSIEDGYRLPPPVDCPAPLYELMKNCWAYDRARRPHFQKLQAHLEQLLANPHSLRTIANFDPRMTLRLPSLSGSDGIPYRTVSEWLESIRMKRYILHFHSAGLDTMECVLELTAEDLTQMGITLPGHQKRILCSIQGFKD

N#C/C(=C\c1ccc(O)c(O)c1)C(=O)NCc1ccccc1
residual activity (MAP3K2 (human)): 99.8%
residual activity (MAP4K2 (human)): 103%
residual activity (EPHA8 (human)): 92%
residual activity (EPHA1 (human)): 99.4%
residual activity (PRKCG (human)): 97.2%
residual activity (PRKG2 (human)): 98.6%
residual activity (CDK2 CCNA2 (human)): 99.2%
residual activity (FLT3 (human)): 92.8%
residual activity (PRKCD (human)): 91.1%
residual activity (MAP3K5 (human)): 104%
residual activity (SRC (human)): 94.8%
residual activity (PAK4 (human)): 111%
residual activity (FGFR3 (human)): 98.2%
residual activity (FES (human)): 101%
residual activity (MAPK14 (human)): 108%
residual activity (NTRK2 (human)): 94.5%
residual activity (PRKX (human)): 99.6%
residual activity (PRKCH (human)): 95.5%
residual activity (CLK3 (human)): 125%
residual activity (CDK6 CCND1 (human)): 95.6%
residual activity (CDK4 CCND3 (human)): 98%
residual activity (BTK (human)): 99.8%
residual activity (MAP3K7 TAB1 (human)): 98.1%
residual activity (SYK (human)): 116%
residual activity (FGFR2 (human)): 98.1%
residual activity (FGFR4 (human)): 84.2%
residual activity (MAPK13 (human)): 101%
residual activity (ALK (human)): 105%
residual activity (ULK1 (human)): 92.9%
residual activity (PIM3 (human)): 95.8%
residual activity (MAP3K8 (human)): 98.1%
residual activity (TBK1 (human)): 98.3%
residual activity (CAMKK1 (human)): 102%
residual activity (PLK1 (human)): 97.3%
residual activity (RIPK2 (human)): 101%
residual activity (RPS6KB2 (human)): 94.7%
residual activity (CSNK1E (human)): 86.3%
residual activity (CDK6 CCND3 (human)): 104%
residual activity (FGFR1 (human)): 92.8%
residual activity (RET (human)): 108%
residual activity (MAP3K3 (human)): 102%

NC(=O)c1cccc(-c2cc(Nc3ccc(OC(F)(F)F)cc3)ncn2)c1
residual activity (MAP3K2 (human)): 79.5%
residual activity (MAP4K2 (human)): 132%
residual activity (EPHA8 (human)): 94.5%
residual activity (EPHA1 (human)): 90.1%
residual activity (PRKCG (human)): 83.6%
residual activity (PRKG2 (human)): 96.4%
residual activity (CDK2 CCNA2 (human)): 96.5%
residual activity (FLT3 (human)): 98.9%
residual activity (PRKCD (human)): 83.1%
residual activity (MAP3K5 (human)): 90.3%
residual activity (MLTK (human)): 102%
residual activity (SRC (human)): 97%
residual activity (PAK4 (human)): 94.6%
residual activity (FGFR3 (human)): 93.2%
residual activity (FES (human)): 96.3%
residual activity (MAPK14 (human)): 92%
residual activity (NTRK2 (human)): 96%
residual activity (PRKX (human)): 105%
residual activity (PRKCH (human)): 98.4%
residual activity (CLK3 (human)): 104%
residual activity (CDK6 CCND1 (human)): 99.1%
residual activity (CDK4 CCND3 (human)): 98.4%
residual activity (BTK (human)): 99.1%
residual activity (MAP3K7 TAB1 (human)): 99.1%
residual activity (SYK (human)): 99.9%
residual activity (FGFR2 (human)): 95.9%
residual activity (FGFR4 (human)): 92.9%
residual activity (MAPK13 (human)): 98.1%
residual activity (ALK (human)): 103%
residual activity (ULK1 (human)): 97.5%
residual activity (PIM3 (human)): 88.6%
residual activity (MAP3K8 (human)): 96.8%
residual activity (TBK1 (human)): 92.4%
residual activity (CAMKK1 (human)): 103%
residual activity (PLK1 (human)): 97.7%
residual activity (RIPK2 (human)): 89.3%
residual activity (RPS6KB2 (human)): 102%
residual activity (CSNK1E (human)): 103%
residual activity (CDK6 CCND3 (human)): 96.2%
residual activity (FGFR1 (human)): 96.9%
residual activity (RET (human)): 105%
residual activity (MAP3K3 (human)): 104%

O=C1Nc2ccc(Br)cc2/C1=C\c1cc2c([nH]1)CCCC2
residual activity (MAP3K2 (human)): 93.6%
residual activity (MAP4K2 (human)): 58.1%
residual activity (EPHA8 (human)): 94.5%
residual activity (EPHA1 (human)): 93.1%
residual activity (PRKCG (human)): 100%
residual activity (PRKG2 (human)): 92.4%
residual activity (CDK2 CCNA2 (human)): 90.8%
residual activity (FLT3 (human)): 3.86%
residual activity (PRKCD (human)): 95.6%
residual activity (MAP3K5 (human)): 101%
residual activity (MLTK (human)): 87.7%
residual activity (SRC (human)): 88.8%
residual activity (PAK4 (human)): 76.8%
residual activity (FGFR3 (human)): 55.8%
residual activity (FES (human)): 83.8%
residual activity (NTRK2 (human)): 43.6%
residual activity (PRKX (human)): 97.2%
residual activity (PRKCH (human)): 97.4%
residual activity (CLK3 (human)): 101%
residual activity (CDK6 CCND1 (human)): 90.4%
residual activity (CDK4 CCND3 (human)): 99.8%
residual activity (BTK (human)): 90.5%
residual activity (MAP3K7 TAB1 (human)): 60.9%
residual activity (SYK (human)): 90.5%
residual activity (FGFR2 (human)): 87.4%
residual activity (FGFR4 (human)): 77%
residual activity (MAPK13 (human)): 100%
residual activity (ALK (human)): 88.5%
residual activity (ULK1 (human)): 69.4%
residual activity (PIM3 (human)): 87.5%
residual activity (MAP3K8 (human)): 105%
residual activity (TBK1 (human)): 66.9%
residual activity (CAMKK1 (human)): 69.6%
residual activity (PLK1 (human)): 102%
residual activity (RIPK2 (human)): 87.2%
residual activity (RPS6KB2 (human)): 102%
residual activity (CSNK1E (human)): 84.3%
residual activity (CDK6 CCND3 (human)): 85.8%
residual activity (FGFR1 (human)): 76.7%
residual activity (RET (human)): 42.9%
residual activity (MAP3K3 (human)): 88.6%

Fc1ccc(-c2nc3n(c2-c2ccncc2)CCS3)cc1
residual activity (MAP3K2 (human)): 99.8%
residual activity (MAP4K2 (human)): 109%
residual activity (EPHA8 (human)): 88.2%
residual activity (EPHA1 (human)): 98.2%
residual activity (PRKG2 (human)): 93.9%
residual activity (CDK2 CCNA2 (human)): 101%
residual activity (FLT3 (human)): 94.7%
residual activity (PRKCD (human)): 99.1%
residual activity (MAP3K5 (human)): 105%
residual activity (MLTK (human)): 100%
residual activity (SRC (human)): 98.2%
residual activity (PAK4 (human)): 99.1%
residual activity (FGFR3 (human)): 91.8%
residual activity (FES (human)): 104%
residual activity (MAPK14 (human)): 43.1%
residual activity (NTRK2 (human)): 103%
residual activity (PRKX (human)): 97.6%
residual activity (PRKCH (human)): 87.4%
residual activity (CLK3 (human)): 94.4%
residual activity (CDK6 CCND1 (human)): 97%
residual activity (CDK4 CCND3 (human)): 94.9%
residual activity (BTK (human)): 103%
residual activity (MAP3K7 TAB1 (human)): 92.2%
residual activity (SYK (human)): 98.3%
residual activity (FGFR2 (human)): 106%
residual activity (FGFR4 (human)): 82.8%
residual activity (MAPK13 (human)): 111%
residual activity (ALK (human)): 124%
residual activity (ULK1 (human)): 82.6%
residual activity (PIM3 (human)): 105%
residual activity (MAP3K8 (human)): 88.1%
residual activity (TBK1 (human)): 90.6%
residual activity (CAMKK1 (human)): 113%
residual activity (PLK1 (human)): 101%
residual activity (RIPK2 (human)): 84.7%
residual activity (RPS6KB2 (human)): 85.6%
residual activity (CSNK1E (human)): 20%
residual activity (CDK6 CCND3 (human)): 108%
residual activity (FGFR1 (human)): 93.4%
residual activity (RET (human)): 99.5%
residual activity (MAP3K3 (human)): 100%
